Results as given in patent US20240335503A1, “ROMIDEPSIN AS A THERAPEUTIC AGENT FOR NERVE-INJURY INDUCED NEUROPATHIC PAIN AND SPASTICITY” (The United States Government as represented by the …, priority 2021, published 2024).
Entries after “also recorded” stand apart in the source; their conditions may differ. Like-named read-outs stand apart in the source and are kept apart here.

Tests used:
[1] = system: acetyl histone-H3; conditions: injected intraperitoneally; within 24-hours post-administration; dorsal horn L4 (Guo et al., 2018); FIG. 25; cited from earlier work
[2] = system: adult mice; conditions: mouse, in vivo
Protocol: Rationale for Dosing: These initial romidepsin dosages were determined on two interrelated rationales. […] 2) Because it is expected that the utility of romidepsin for pain mitigation would likely require longer-term use than for the oncology indication, a pilot study in mice was performed with a lower dose of romidepsin for a prolonged period of time (once daily injections up to 14 days).

[3] = system: SCI mouse model; assay: Maximum tolerated dose in SCI mouse model (weight loss, paw grip-strength, mobility); assay type: in vivo
Protocol: (§1) As detailed elsewhere herein, the feasibility of “repurposing” a clinically approved drug to address spasticity in SCI will be evaluated. Here, testing the efficacy of romidepsin, an FDA-approved drug, to reduce PAK1 activity in the spinal cord and SCI-induced spasticity has begun. […] Initial test dosages were calculated from human trial data using FDA guidelines for converting drug dosage from human to animal.
(§2) Vehicle (1% DMSO) was used as a control treatment.

[4] = as above; assay type: in vivo; conditions: mouse, in vivo; once/day for 3 days; 10 μl per IP injection; diluted in 1% DMSO
Protocol: as §1, §2

[5] = system: humans; conditions: human, in vivo; cited from earlier work
[6] = molecular target: PAK1 (Homo sapiens, UniProt Q13153); conditions: cited from earlier work
PAK1, sequence (Q13153 whole entry): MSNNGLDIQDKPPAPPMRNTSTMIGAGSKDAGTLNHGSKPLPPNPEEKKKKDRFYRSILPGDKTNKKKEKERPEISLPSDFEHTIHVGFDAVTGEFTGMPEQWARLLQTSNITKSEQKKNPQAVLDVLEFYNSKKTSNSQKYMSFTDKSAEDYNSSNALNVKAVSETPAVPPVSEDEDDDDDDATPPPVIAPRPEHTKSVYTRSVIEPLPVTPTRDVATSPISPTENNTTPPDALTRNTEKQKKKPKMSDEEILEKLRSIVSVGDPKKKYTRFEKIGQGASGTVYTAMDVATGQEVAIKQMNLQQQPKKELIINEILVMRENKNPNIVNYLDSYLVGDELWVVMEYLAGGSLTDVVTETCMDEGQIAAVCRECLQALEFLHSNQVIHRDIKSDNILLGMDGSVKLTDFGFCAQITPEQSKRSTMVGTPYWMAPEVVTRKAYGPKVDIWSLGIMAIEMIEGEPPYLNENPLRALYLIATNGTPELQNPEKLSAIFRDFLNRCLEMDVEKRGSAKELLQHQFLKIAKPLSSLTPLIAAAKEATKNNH

[7] = cited from earlier work
[8] = system: nerve injury-induced chronic pain; assay: Spared nerve injury (SNI) pain model, mechanical-evoked pain; assay type: in vivo; conditions: mouse SNI, IP once/day for 5 days at 0.25 mg/kg, FIG. 27
Source text: An SNI is a transection-type peripheral nerve injury model, whereby a portion of the sciatic nerve innervating the hindlimb is ligated and cut. In this nerve injury model, the common peroneal and tibial nerves are injured, producing consistent and reproducible pain hypersensitivity in the cutaneous territory of the spared sural nerve. Additionally, the SNI leads to prolonged mechanical and thermal hyperresponsiveness in behavioral studies, which closely mimic clinically-described neuropathic pain conditions (Cichon et al., 2018). With an SNI, adult mice rapidly develop maximal neuropathic pain sensitivity within 3 days post-SNI (Benson et al., 2020; Cichon et al., 2018).
To evaluate the efficacy of romidepsin in treating nerve-induced chronic pain, the following comparator groups were prepared (weight-matched, adult male/female equally mixed C57BL/6 mice): Sham (n=5), SNI+Vehicle (n=5), and SNI+romidepsin (n=5). Romidepsin was administered as an intraperitoneal (IP) injection for five consecutive days after SNI (once/day for 5 days: 5 μl per injection at 0.25 mg/kg). Vehicle administration route was the same as romidepsin (1% diluted in DMSO; IP route), and sham animals underwent all procedures except for nerve injury.

[9] = system: p-Raf; assay: p-Raf expression in spinal cord neurons (histological analysis); assay type: in vivo, mouse; conditions: spinal cord after SCI; FIG. 16
Source text: Outcome Measures: On days 14, 28, and 35 post-SCI, spinal cord and brain tissue were collected for histological analyses. Tissue was processed using SWITCH clearing and immunohistochemistry performed to analyze protein expression levels of inflammatory markers, i.e., GFAP/OX42 for astro/microgliosis, cfos, p38, p-Raf, or PAK1 activity (Stamboulian et al., 2010); Tan et al., 2011; Tan et al., 2008). Because mice are Thy1-GFP transgenic animals, α-motor neurons were identified using established morphological criteria, including soma size and topographical location (Bandaru et al., 2015; Tan et al., 2012a). GFP-expressing dendritic spines were visualized, and their morphology profiled in association with spasticity. All data was statistically compared across groups (Bandaru et al., 2015; Zhao et al., 2016). To determine the efficacy of romidepsin treatments on SCI-induced spasticity, anatomical and biochemical data were correlated with spasticity outcomes. […]
(§3) To monitor in vivo drug-response using established clinical biomarkers from all animals before and after intrathecal treatment with romidepsin at MTD, histone acetylation in peripheral blood mononuclear cells (PBMCs) or lymphocytes/monocytes in CSF (i.e., ELISA pharmacodynamics assessment) will be assessed (Cotto et al., 2010; VanderMolen et al., 2011). […]

[10] = system: SCI-induced spasticity; assay: Evoked H-reflex EMG recordings (rate-dependent depression) in SCI spasticity model; assay type: in vivo, mouse
Protocol: as §1
Study Design: Four animal groups were prepared (adult m/f mix; 6-8 weeks old; n=60/group); 1) Sham+DMSO/vehicle, 2) Sham+Romidepsin, 3) SCI+DMSO/vehicle, and 4) SCI+Romidepsin. […]
H-reflex electrophysiology-EMG recordings of evoked H-reflex will be performed in the plantar muscle group (Bandaru et al., 2015; Benson et al., 2017; Boulenguez et al., 2010; Nielsen et al., 2007). […] Three trials (10 sweeps/trial) will be recorded for each paired-pulse. Rectified traces will be analyzed. […] The H/M ratio will be calculated using the peak amplitude of M-wave and H-reflex following the test pulse. H-reflex EMG studies provide specific readout only of the monosynaptic circuit, and is therefore an accurate measure of the spinal stretch reflex response without the confounds of supraspinal, interneuronal, or other motor neuron sub-type input (Nielsen et al., 2007).

[11] = system: acetyl histone-H3; assay type: in vivo, mouse; conditions: vs control treated animal tissues; FIG. 17
Protocol: as §1
To monitor in vivo drug-response using established clinical biomarkers from all animals before and after treatment with romidepsin, histone acetylation was assessed in spinal cord tissue, peripheral blood mononuclear cells (PBMCs), and monocytes from CSF (i.e., ELISA pharmacodynamics assessment) (Cotto et al., 2010); VanderMolen et al., 2011). Liquid samples were collected using routine blood or spinal CSF draws.
as §3

[12] = system: primary cultured spinal cord dorsal horn neurons; assay: Dendritic spine density in primary cultured neurons with PAK1 inhibitor; assay type: cell-based; conditions: PAK1 inhibitor treatment; FIG. 11
Protocol: To assess whether PAK1 inhibition would disrupt dendritic spines, a morphological correlate of spasticity, the effect of a non-pharmaceutical grade PAK1 inhibitor, IPA3, on primary cultured spinal cord dorsal horn neurons was measured using previous methods (Tan et al., 2011).

Row | Compound | histone acetylation in neurons [1] | adverse effects (ambulation, body mass loss, outward signs of toxicity) [2] | food intake [2] | maximum tolerated dose (MTD) ([3]; SCI mouse model, once/day IP injection over 3 days, 0.1 ml) [mg/kg/injection] | body weight ([3]; mouse, in vivo) | paw-grip strength ([3]; mouse, in vivo) | MTD at 3 days [4] [mg/kg] | occurrence of adverse reactions (grade 3 or 4) related to weight loss and fatigue [5] | concentrations that significantly reduce PAK1 kinase activity ([6]; Hirokawa et al., 2005, Maruta, 2011) [nM] | PAK1 protein level ([6]; at 0.1-1 nM) | blood brain barrier (BBB) penetration ([7]; administered systemically in non-human primates or rodents/rats, drug and active metabolites) | half-life ([7]; depending on the organism (Berg et al., 2004)) [h] | half-life ([7]; published PK/PD studies (Berg et al., 2004)) [h] | half-life ([7]; published human PK/PD studies (Berg et al., 2004)) [h] | mechanical-evoked pain [8] | expression of p-Raf on Thy-YFP expressing cells (neurons) [9] | RDD of H-reflex (spasticity) ([10]; SCI animals vs vehicle control, preliminary EMG studies, FIG. 13) | RDD of H-reflex (H/M ratio) ([10]; SCI mice, IP injection at 0.25 mg/kg vs control vehicle, FIG. 15, 0.25 mg/kg) | H3 density in spinal cord tissues [11] | dendritic spine density [12]
1 | C/C=C1\NC(=O)[C@H]2CSSCC/C=C/[C@H](CC(=O)N[C@H](C(C)C)C(=O)N2)OC(=O)[C@H](C(C)C)NC1=O [romidepsin] | upregulation of histone acetylation in neurons; also recorded: upregulation in acetyl histone-H3 in neurons | no observable adverse effects | appeared the same | 1.25 | does not affect | does not affect | 1.25 | 2-8% | 0.1 to 1 | without changing | can passively penetrate through the blood brain barrier (BBB) in relatively low concentrations | < 10 | < 10 | < 10 | significant decrease in mechanical-evoked pain; also recorded: significantly decreases mechanical-evoked pain | significantly decreases | partially restored RDD; also recorded: partial reduction in spasticity | significant restoration of rate-dependent depression (RDD) | significant increase in H3 density | 
2 | Oc1ccc2ccccc2c1SSc1c(O)ccc2ccccc12 [IPA3] |  |  |  |  |  |  |  |  |  |  |  |  |  |  |  |  |  |  |  | decreases
